Laboratory results reported in patent publication US10011607B2, “Ethynyl derivatives” (Hoffmann-La Roche Inc., priority 2015, dated 2018).

Target: human mGlu4 receptor (Homo sapiens (Human), UniProt Q14833)
Experiment: Ca2+ mobilization in vitro assay on recombinant human mGlu4 expressed in HEK293 cells (PAM)
Type: cell-based
Settings: for Emax: HEK293, maximal response in % of maximal stimulatory effect of saturating L-AP4, read-out: Eff. (%); for EC50: HEK293 cells, human mGlu4, in presence of EC20 of L-AP4, read-out: EC50 (nM) mGlu4PAM
Summary of the method: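 HEK293 cells stably expressing human mGlu4 at low level, Fluo-4AM loaded; compound (11 half-log dilutions) pre-incubated 10–30 min at 37 °C, then L-AP4 added at EC20 (determined daily). Peak fluorescence minus basal, normalized to saturating L-AP4; EC50, Hill slope and % Emax from four-parameter fit.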

Sequence of human mGlu4 receptor (Q14833 33-912): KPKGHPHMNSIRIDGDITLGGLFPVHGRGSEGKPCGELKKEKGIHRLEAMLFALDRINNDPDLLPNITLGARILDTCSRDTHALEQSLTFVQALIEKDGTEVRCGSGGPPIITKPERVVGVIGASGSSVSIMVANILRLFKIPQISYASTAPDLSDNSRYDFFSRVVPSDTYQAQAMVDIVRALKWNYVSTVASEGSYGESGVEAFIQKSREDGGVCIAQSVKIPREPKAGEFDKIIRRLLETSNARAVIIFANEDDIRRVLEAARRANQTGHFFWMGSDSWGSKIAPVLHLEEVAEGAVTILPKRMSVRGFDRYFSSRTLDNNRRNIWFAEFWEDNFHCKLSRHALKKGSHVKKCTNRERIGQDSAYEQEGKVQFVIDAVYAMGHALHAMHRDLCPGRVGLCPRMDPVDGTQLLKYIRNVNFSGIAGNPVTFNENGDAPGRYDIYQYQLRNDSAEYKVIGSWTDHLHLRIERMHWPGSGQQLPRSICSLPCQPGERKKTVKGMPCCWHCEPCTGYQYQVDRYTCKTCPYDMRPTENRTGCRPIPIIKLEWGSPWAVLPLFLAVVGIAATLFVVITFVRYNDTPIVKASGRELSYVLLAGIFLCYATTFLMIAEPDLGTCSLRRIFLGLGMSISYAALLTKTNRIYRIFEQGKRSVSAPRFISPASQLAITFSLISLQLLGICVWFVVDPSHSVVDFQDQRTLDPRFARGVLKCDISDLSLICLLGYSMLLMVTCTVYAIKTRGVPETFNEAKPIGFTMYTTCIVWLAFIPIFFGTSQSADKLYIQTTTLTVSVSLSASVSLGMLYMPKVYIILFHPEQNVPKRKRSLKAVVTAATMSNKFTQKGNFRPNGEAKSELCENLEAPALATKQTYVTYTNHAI

Cn1cc(N2CCN3C(=O)N(c4c(F)cc(C#Cc5ccccc5F)cc4F)C(=O)C[C@@]3(C)C2=O)cn1 [Example 111, (9aS)-7-[2,6-difluoro-4-[2-(2-fluorophenyl)ethynyl]phenyl]-9a-methyl-2-(1-methylpyrazol-4-yl)-4,9-dihydro-3H-pyrazino[1,2-c]pyrimidine-1,6,8-trione]
Emax: 120%
EC50: 56 nM

CC12CC(=O)N(c3c(F)cc(C#Cc4ccccc4)cc3Cl)C(=O)N1CCN(c1ccncc1)C2=O (racemic) [Example 75, (9aRS)-7-[2-chloro-6-fluoro-4-(2-phenylethynyl)phenyl]-9a-methyl-2-(4-pyridyl)-4,9-dihydro-3H-pyrazino[1,2-c]pyrimidine-1,6,8-trione]
Emax: 128%
EC50: 210 nM

Cn1nccc1CCN1CCN2C(=O)N(c3c(F)cc(C#Cc4ccccc4)cc3F)C(=O)C[C@@]2(C)C1=O [Example 100, (9aS)-7-[2,6-difluoro-4-(2-phenylethynyl)phenyl]-9a-methyl-2-[2-(2-methylpyrazol-3-yl)ethyl]-4,9-dihydro-3H-pyrazino[1,2-c]pyrimidine-1,6,8-trione]
Emax: 123%
EC50: 219 nM

Cc1cc(N2CCN3C(=O)N(c4c(F)cc(C#Cc5ccccc5)cc4F)C(=O)CC3(C)C2=O)n(C)n1 (racemic) [Example 66, (9aRS)-7-[2,6-difluoro-4-(2-phenylethynyl)phenyl]-2-(2,5-dimethylpyrazol-3-yl)-9a-methyl-4,9-dihydro-3H-pyrazino[1,2-c]pyrimidine-1,6,8-trione]
Emax: 142%
EC50: 85 nM

Cn1nccc1N1CCN2C(=O)N(c3c(F)cc(C#Cc4ccccc4)cc3F)C(=O)C[C@@]2(C)C1=O [Example 65, (9aS)-7-[2,6-difluoro-4-(2-phenylethynyl)phenyl]-9a-methyl-2-(2-methylpyrazol-3-yl)-4,9-dihydro-3H-pyrazino[1,2-c]pyrimidine-1,6,8-trione]
Emax: 92%
EC50: 92 nM

CC[C@@]12CC(=O)N(c3c(F)cc(C#Cc4ccccc4)cc3F)C(=O)N1CCN(c1cnn(C)c1)C2=O [Example 107, (9aS)-7-[2,6-difluoro-4-(2-phenylethynyl)phenyl]-9a-ethyl-2-(1-methylpyrazol-4-yl)-4,9-dihydro-3H-pyrazino[1,2-c]pyrimidine-1,6,8-trione]
Emax: 125%
EC50: 104 nM

CC12CC(=O)N(c3c(F)cc(C#Cc4ccccc4)cc3F)C(=O)N1CCN(c1ccncn1)C2=O (racemic) [Example 26, (9aRS)-7-[2,6-difluoro-4-(2-phenylethynyl)phenyl]-9a-methyl-2-pyrimidin-4-yl-4,9-dihydro-3H-pyrazino[1,2-c]pyrimidine-1,6,8-trione]
Emax: 101%
EC50: 36 nM

COCCCn1cc(N2CCN3C(=O)N(c4c(F)cc(C#Cc5ccccc5)cc4F)C(=O)C[C@@]3(C)C2=O)cn1 [Example 72, (9aS)-7-[2,6-difluoro-4-(2-phenylethynyl)phenyl]-2-[1-(3-methoxypropyl)pyrazol-4-yl]-9a-methyl-4,9-dihydro-3H-pyrazino[1,2-c]pyrimidine-1,6,8-trione]
Emax: 149%
EC50: 122 nM

Cc1cccc(C)c1CN1CCN2C(=O)N(c3c(F)cc(C#Cc4ccccc4)cc3F)C(=O)CC2(C)C1=O (racemic) [Example 86, (9aRS)-7-[2,6-difluoro-4-(2-phenylethynyl)phenyl]-2-[(2,6-dimethylphenyl)methyl]-9a-methyl-4,9-dihydro-3H-pyrazino[1,2-c]pyrimidine-1,6,8-trione]
Emax: 118%
EC50: 68 nM

CC12CC(=O)N(c3c(F)cc(C#Cc4ccccc4)cc3F)C(=O)N1CCN(c1ncc(C(F)(F)F)s1)C2=O (racemic) [Example 57, (9aRS)-7-[2,6-difluoro-4-(2-phenylethynyl)phenyl]-9a-methyl-2-[5-(trifluoromethyl)thiazol-2-yl]-4,9-dihydro-3H-pyrazino[1,2-c]pyrimidine-1,6,8-trione]
Emax: 103%
EC50: 108 nM

CC12CC(=O)N(c3c(F)cc(C#Cc4ccccc4)cc3F)C(=O)N1CCN(c1nccs1)C2=O (racemic) [Example 52, (9aRS)-7-[2,6-difluoro-4-(2-phenylethynyl)phenyl]-9a-methyl-2-thiazol-2-yl-4,9-dihydro-3H-pyrazino[1,2-c]pyrimidine-1,6,8-trione]
Emax: 97%
EC50: 113 nM

CC12CC(=O)N(c3c(F)cc(C#Cc4ccccc4)cc3F)C(=O)N1CCN(Cc1ccccn1)C2=O (racemic) [Example 92, (9aRS)-7-[2,6-difluoro-4-(2-phenylethynyl)phenyl]-9a-methyl-2-(2-pyridylmethyl)-4,9-dihydro-3H-pyrazino[1,2-c]pyrimidine-1,6,8-trione]
Emax: 91%
EC50: 198 nM

Cc1cncc(N2CCN3C(=O)N(c4c(F)cc(C#Cc5ccccc5)cc4F)C(=O)CC3(C)C2=O)c1 (racemic) [Example 14, (9aRS)-7-[2,6-difluoro-4-(2-phenylethynyl)phenyl]-9a-methyl-2-(5-methyl-3-pyridyl)-4,9-dihydro-3H-pyrazino[1,2-c]pyrimidine-1,6,8-trione]
Emax: 129%
EC50: 105 nM

CC12CC(=O)N(c3c(F)cc(C#Cc4ccccc4)cc3F)C(=O)N1CCN(c1nc(C(F)(F)F)cs1)C2=O (racemic) [Example 56, (9aRS)-7-[2,6-difluoro-4-(2-phenylethynyl)phenyl]-9a-methyl-2-[4-(trifluoromethyl)thiazol-2-yl]-4,9-dihydro-3H-pyrazino[1,2-c]pyrimidine-1,6,8-trione]
Emax: 88%
EC50: 166 nM

CCOc1ncc(N2CCN3C(=O)N(c4c(F)cc(C#Cc5ccccc5)cc4F)C(=O)C[C@@]3(C)C2=O)cn1 [Example 39, (9aS or 9aR)-7-[2,6-difluoro-4-(2-phenylethynyl)phenyl]-2-(2-ethoxypyrimidin-5-yl)-9a-methyl-4,9-dihydro-3H-pyrazino[1,2-c]pyrimidine-1,6,8-trione]
Emax: 103%
EC50: 96 nM

C[C@@]12CC(=O)N(c3c(F)cc(C#Cc4ccccc4)cc3F)C(=O)N1CCN(c1cnc(OCc3ccccc3)nc1)C2=O [Example 41, (9aS)-2-(2-benzyloxypyrimidin-5-yl)-7-[2,6-difluoro-4-(2-phenylethynyl)phenyl]-9a-methyl-4,9-dihydro-3H-pyrazino[1,2-c]pyrimidine-1,6,8-trione]
Emax: 99%
EC50: 81 nM

CC12CC(=O)N(c3c(F)cc(C#Cc4ccccc4)cc3F)C(=O)N1CCN(c1ccc(Cl)nc1)C2=O (racemic) [Example 20, (9aRS)-2-(6-chloro-3-pyridyl)-7-[2,6-difluoro-4-(2-phenylethynyl)phenyl]-9a-methyl-4,9-dihydro-3H-pyrazino[1,2-c]pyrimidine-1,6,8-trione]
Emax: 101%
EC50: 116 nM

CC12CC(=O)N(c3c(F)cc(C#Cc4ccccc4)cc3F)C(=O)N1CCN(Cc1ccncc1)C2=O (racemic) [Example 94, (9aRS)-7-[2,6-difluoro-4-(2-phenylethynyl)phenyl]-9a-methyl-2-(4-pyridylmethyl)-4,9-dihydro-3H-pyrazino[1,2-c]pyrimidine-1,6,8-trione]
Emax: 84%
EC50: 127 nM

CC[C@@]12CC(=O)N(c3c(F)cc(C#Cc4ccccc4)cc3F)C(=O)N1CCN(c1cccnc1)C2=O [Example 106, (9aS)-7-[2,6-difluoro-4-(2-phenylethynyl)phenyl]-9a-ethyl-2-(3-pyridyl)-4,9-dihydro-3H-pyrazino[1,2-c]pyrimidine-1,6,8-trione]
Emax: 112%
EC50: 95 nM
